Key:
[1] = test system: biosensor cells; assay: Toxicity to biosensor cells under seeding assay conditions; type: cell-based; details: under the assayed conditions
[2] = biological target: α-synuclein fibrils (Homo sapiens, UniProt P37840); assay: Table A function: disaggregators of amyloid fibrils (alpha-synuclein)
[3] = biological target: tau fibrils (Homo sapiens, UniProt P10636); assay: Table A function: disaggregators of amyloid fibrils (tau)
Chain of tau fibrils (P10636 1-441 isoform P10636-8): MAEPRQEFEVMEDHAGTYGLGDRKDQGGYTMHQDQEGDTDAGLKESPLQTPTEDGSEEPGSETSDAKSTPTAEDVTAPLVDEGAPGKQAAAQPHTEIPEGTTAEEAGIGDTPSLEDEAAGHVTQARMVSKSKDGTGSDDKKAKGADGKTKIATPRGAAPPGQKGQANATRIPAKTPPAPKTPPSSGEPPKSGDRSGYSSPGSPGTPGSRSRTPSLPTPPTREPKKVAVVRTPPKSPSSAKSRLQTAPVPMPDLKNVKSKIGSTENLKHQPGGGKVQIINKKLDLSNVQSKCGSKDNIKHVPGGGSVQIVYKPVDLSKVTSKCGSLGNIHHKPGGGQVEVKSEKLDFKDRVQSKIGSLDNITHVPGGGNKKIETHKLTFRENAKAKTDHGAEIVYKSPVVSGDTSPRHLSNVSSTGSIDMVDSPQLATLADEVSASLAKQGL

Row | Compound | Function [3] | further results
1 | Oc1cccc(-c2c3nc(c(-c4cccc(O)c4)c4ccc([nH]4)c(-c4cccc(O)c4)c4nc(c(-c5cccc(O)c5)c5ccc2[nH]5)CC4)C=C3)c1 [FDA-A4, Temoporfin] | – | toxicity to biosensor cells [1]: toxic
2 | Cc1cc(NC(=O)Cc2ccccc2Cl)ccc1Br [MOL06, N-(4-bromo-3-methylphenyl)-2-(2-chlorophenyl)acetamide] | – | Function [2]: Dissociate α- synuclein fibrils
3 | COc1cccc2cc(C(=O)Nc3cccc(-c4cn5ccccc5n4)c3)c(=O)oc12 [compound 1541, N-(3-(imidazo[1,2-a]pyridin-2-yl)phenyl)-8-methoxy-2-oxo-2H-chromene-3-carboxamide] | Dissociate tau fibrils | –
4 | O=C1C(Cl)=C(Nc2ccc(Cl)cc2)C(=O)c2ccccc21 [MOL18, 2-chloro-3-[(4-chlorophenyl)amino]naphthalene-1,4-dione] | Dissociate tau fibrils | –

From patent US20260021092A1, “STRUCTURE-BASED DESIGN OF A NOVEL CLASS OF DRUGS FOR NEURODEGENERATIVE DISEASE” (The Regents of the University of California, priority 2022, published 2026)
